Experimental data taken from publication PMC7905942 (ACS Omega, 2021).

How the values were obtained:
[1] = system: PC3 (prostate cancer) cells; test: SRB cytotoxicity assay, PC3; format: cell-based; settings: Homo sapiens, 48 h, read-out: Cytotoxicity IC50, PC3
[2] = system: NCI-H23 (lung cancer) cells; test: SRB cytotoxicity assay, NCI-H23; format: cell-based; settings: Homo sapiens, NCI-H23, 48 h, read-out: Cytotoxicity IC50, NCI-H23
[3] = system: HDAC (Hela cell nuclear extract); format: biochemical; settings: for fold higher HDAC IC50 than that of SAHA: Hela cell nuclear extract; for fold more potent than SAHA: HDAC inhibitory activity and cytotoxicity together
[4] = system: SW620, PC3 and NCI-H23 cancer cell lines; test: SRB cytotoxicity, range over three human cancer cell lines; format: cell-based; settings: read-out: Cytotoxicity IC50 values (range over cell lines)
[5] = system: SW620 (colon cancer) cells; test: SRB cytotoxicity assay, SW620; format: cell-based; settings: Homo sapiens, SW-620, 48 h, read-out: Cytotoxicity IC50, SW620
HDAC6 = biological target: T1, HDAC6 (Homo sapiens, UniProt Q9UBN7); test: HDAC6 enzyme assay; format: biochemical
T1 sequence (Q9UBN7 1-1215): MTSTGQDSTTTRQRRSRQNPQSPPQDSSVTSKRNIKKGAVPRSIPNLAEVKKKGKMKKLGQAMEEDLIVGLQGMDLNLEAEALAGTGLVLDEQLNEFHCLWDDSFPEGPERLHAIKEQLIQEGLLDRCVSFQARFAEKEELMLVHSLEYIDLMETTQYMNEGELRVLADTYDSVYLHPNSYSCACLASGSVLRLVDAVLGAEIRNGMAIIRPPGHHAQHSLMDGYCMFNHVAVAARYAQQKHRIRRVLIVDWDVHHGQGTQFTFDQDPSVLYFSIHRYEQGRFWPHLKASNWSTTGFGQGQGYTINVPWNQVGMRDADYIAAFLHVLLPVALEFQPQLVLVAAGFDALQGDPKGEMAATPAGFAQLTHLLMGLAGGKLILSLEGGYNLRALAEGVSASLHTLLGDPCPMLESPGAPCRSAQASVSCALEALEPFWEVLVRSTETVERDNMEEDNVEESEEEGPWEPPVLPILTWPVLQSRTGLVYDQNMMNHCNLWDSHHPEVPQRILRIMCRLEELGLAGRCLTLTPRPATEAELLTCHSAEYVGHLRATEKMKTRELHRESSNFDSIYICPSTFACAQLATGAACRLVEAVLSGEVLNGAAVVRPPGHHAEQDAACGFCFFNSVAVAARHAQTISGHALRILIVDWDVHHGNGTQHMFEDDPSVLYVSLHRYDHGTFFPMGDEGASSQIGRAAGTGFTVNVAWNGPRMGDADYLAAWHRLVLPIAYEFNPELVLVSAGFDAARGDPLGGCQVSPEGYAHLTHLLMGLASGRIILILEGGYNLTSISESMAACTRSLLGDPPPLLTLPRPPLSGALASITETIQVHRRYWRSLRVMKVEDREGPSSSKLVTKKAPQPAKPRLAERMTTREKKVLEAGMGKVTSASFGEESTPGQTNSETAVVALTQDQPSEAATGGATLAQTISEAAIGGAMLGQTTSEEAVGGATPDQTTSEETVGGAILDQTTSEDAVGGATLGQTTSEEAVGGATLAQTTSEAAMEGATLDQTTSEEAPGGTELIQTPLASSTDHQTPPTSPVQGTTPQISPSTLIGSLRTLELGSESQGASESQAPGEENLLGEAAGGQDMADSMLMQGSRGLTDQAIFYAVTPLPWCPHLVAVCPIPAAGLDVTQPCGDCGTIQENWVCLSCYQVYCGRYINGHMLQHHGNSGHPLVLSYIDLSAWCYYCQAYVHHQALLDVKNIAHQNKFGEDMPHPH

[6] = system: SW620 human colon cancer cells; test: Annexin V-FITC/PI dual staining apoptosis assay; format: cell-based; settings: 10 μM, 24 h
[7] = system: SW620 human colon cancer cells; test: Cell cycle analysis by flow cytometry; format: cell-based; settings: compounds 10 μM, SAHA 1 μM, 24 h, vehicle 6.29%

O=C(/C=C/c1cccc(S(=O)(=O)Nc2ccccc2)c1)NO [Belinostat, belinostat, reference compound]
IC50 [1]: 2530 ± 170 nM

CCn1cnc2ccc(/C=C/C(=O)NO)cc2c1=O [Compound 9a, (E)-3-(3-Ethyl-4-oxo-3,4-dihydroquinazolin-6-yl)-N-hydroxyacrylamide]
IC50 [2]: 5787 ± 3 nM | fold higher HDAC IC50 than that of SAHA [3]: approximately 10 fold | IC50 [4]: 3200 to 7040 nM

O=C(/C=C/c1ccc2ncn(CCCl)c(=O)c2c1)NO [Compound 9b, (E)-3-(3-(2-Chloroethyl)-4-oxo-3,4-dihydroquinazolin-6-yl)-N-hydroxyacrylamide]
IC50 [1]: 3970 ± 391 nM | IC50 [5]: 4040 ± 53 nM | fold higher HDAC IC50 than that of SAHA [3]: ~20 fold | IC50 [4]: 3200 to 7040 nM

O=C(/C=C/c1ccc2ncn(CCO)c(=O)c2c1)NO [Compound 9c, (E)-N-Hydroxy-3-(3-(2-hydroxyethyl)-4-oxo-3,4-dihydroquinazolin-6-yl)acrylamide]
IC50 [1]: 4650 ± 171 nM | IC50 [2]: 4309 ± 40 nM | IC50 [5]: 3670 ± 67 nM

CCCn1cnc2ccc(/C=C/C(=O)NO)cc2c1=O [Compound 9d, (E)-N-Hydroxy-3-(4-oxo-3-propyl-3,4-dihydroquinazolin-6-yl)acrylamide]
IC50 [1]: 2870 ± 224 nM | IC50 [2]: 1620 ± 74 nM

CCCCn1cnc2ccc(/C=C/C(=O)NO)cc2c1=O [Compound 9e, (E)-3-(3-Butyl-4-oxo-3,4-dihydroquinazolin-6-yl)-N-hydroxyacrylamide]
IC50 [1]: 1689 ± 14 nM | IC50 [2]: 1450 ± 15 nM | IC50 [5]: 1960 ± 103 nM

O=C(/C=C/c1ccc2ncn(CC3CCCC3)c(=O)c2c1)NO [Compound 9f, (E)-3-(3-(Cyclopentylmethyl)-4-oxo-3,4-dihydroquinazolin-6-yl)-N-hydroxyacrylamide]
IC50 [1]: 1220 ± 100 nM | IC50 [2]: 952 ± 29 nM

O=C(/C=C/c1ccc2ncn(CC3CCCCC3)c(=O)c2c1)NO [Compound 9g, (E)-3-(3-(Cyclohexylmethyl)-4-oxo-3,4-dihydroquinazolin-6-yl)-N-hydroxyacrylamide]
IC50 [1]: 997 ± 18 nM | IC50 [2]: 1291 ± 3 nM

O=C(/C=C/c1ccc2ncn(Cc3ccccc3F)c(=O)c2c1)NO [Compound 9i, (E)-3-(3-(2-Fluorobenzyl)-4-oxo-3,4-dihydroquinazolin-6-yl)-N-hydroxyacrylamide]
IC50 [2]: 659 ± 20 nM | IC50 [4]: 639 to 1120 nM

O=C(/C=C/c1ccc2ncn(Cc3cccc(F)c3)c(=O)c2c1)NO [Compound 9j, (E)-3-(3-(3-Fluorobenzyl)-4-oxo-3,4-dihydroquinazolin-6-yl)-N-hydroxyacrylamide]
IC50 [1]: 1280 ± 13 nM | IC50 [2]: 1669 ± 5 nM | IC50 [5]: 2060 ± 58 nM

O=C(/C=C/c1ccc2ncn(Cc3ccc(F)cc3)c(=O)c2c1)NO [Compound 9k, (E)-3-(3-(4-Fluorobenzyl)-4-oxo-3,4-dihydroquinazolin-6-yl)-N-hydroxyacrylamide]
IC50 [1]: 1040 ± 13 nM | IC50 [2]: 1370 ± 72 nM | IC50 [5]: 1900 ± 55 nM

O=C(/C=C/c1ccc2ncn(Cc3ccc(Cl)cc3)c(=O)c2c1)NO [Compound 9l, (E)-3-(3-(4-Chlorobenzyl)-4-oxo-3,4-dihydroquinazolin-6-yl)-N-hydroxyacrylamide]
IC50 [1]: 1370 ± 30 nM | IC50 [2]: 1660 ± 28 nM

Cc1ccc(Cn2cnc3ccc(/C=C/C(=O)NO)cc3c2=O)cc1 [Compound 9m, (E)-N-Hydroxy-3-(3-(4-methylbenzyl)-4-oxo-3,4-dihydroquinazolin-6-yl)acrylamide]
IC50 [1]: 1260 ± 26 nM | IC50 [2]: 1380 ± 30 nM

CCn1cnc2cc(/C=C/C(=O)NO)ccc2c1=O [Compound 10a, (E)-3-(3-Ethyl-4-oxo-3,4-dihydroquinazolin-7-yl)-N-hydroxyacrylamide]
IC50 [1]: 1681 ± 8 nM | IC50 [2]: 2350 ± 56 nM | IC50 (HDAC6): 80 nM

O=C(/C=C/c1ccc2c(=O)n(CCCl)cnc2c1)NO [Compound 10b, (E)-3-(3-(2-Chloroethyl)-4-oxo-3,4-dihydroquinazolin-7-yl)-N-hydroxyacrylamide]
IC50 [1]: 5550 ± 231 nM | IC50 [2]: 7660 ± 691 nM | IC50 (HDAC6): 322 ± 13 nM

O=C(/C=C/c1ccc2c(=O)n(CCO)cnc2c1)NO [Compound 10c, (E)-N-Hydroxy-3-(3-(2-hydroxyethyl)-4-oxo-3,4-dihydroquinazolin-7-yl)acrylamide]
IC50 [1]: 5050 ± 399 nM | IC50 (HDAC6): 96 ± 6 nM

CCCn1cnc2cc(/C=C/C(=O)NO)ccc2c1=O [Compound 10d, (E)-N-Hydroxy-3-(4-oxo-3-propyl-3,4-dihydroquinazolin-7-yl)acrylamide]
IC50 [1]: 1500 ± 135 nM | IC50 [2]: 1900 ± 53 nM | IC50 (HDAC6): 48 ± 2 nM

CCCCn1cnc2cc(/C=C/C(=O)NO)ccc2c1=O [Compound 10e, (E)-3-(3-Butyl-4-oxo-3,4-dihydroquinazolin-7-yl)-N-hydroxyacrylamide]
IC50 [1]: 2860 ± 94 nM | IC50 [2]: 2749 ± 16 nM | IC50 (HDAC6): 29 nM | IC50 [5]: 3685 ± 27 nM

O=C(/C=C/c1ccc2c(=O)n(CC3CCCC3)cnc2c1)NO [Compound 10f, (E)-3-(3-(Cyclopentylmethyl)-4-oxo-3,4-dihydroquinazolin-7-yl)-N-hydroxyacrylamide]
IC50 [2]: 3160 ± 213 nM | IC50 (HDAC6): 22 nM | IC50 [5]: 3210 ± 83 nM

O=C(/C=C/c1ccc2c(=O)n(CC3CCCCC3)cnc2c1)NO [Compound 10g, (E)-3-(3-(Cyclohexylmethyl)-4-oxo-3,4-dihydroquinazolin-7-yl)-N-hydroxyacrylamide]
IC50 [1]: 2540 ± 26 nM | fold lower HDAC6 IC50 than IC50 in Hela nuclear extract assay (HDAC6; HDAC6 vs total HDAC extract): 10 fold

O=C(/C=C/c1ccc2c(=O)n(Cc3ccccc3)cnc2c1)NO [Compound 10h, (E)-3-(3-Benzyl-4-oxo-3,4-dihydroquinazolin-7-yl)-N-hydroxyacrylamide]
IC50 [1]: 1320 ± 25 nM | IC50 [2]: 1180 ± 15 nM | IC50 (HDAC6): 40 ± 1 nM

O=C(/C=C/c1ccc2c(=O)n(Cc3ccccc3F)cnc2c1)NO [Compound 10i, (E)-3-(3-(2-Fluorobenzyl)-4-oxo-3,4-dihydroquinazolin-7-yl)-N-hydroxyacrylamide]
IC50 [1]: 1950 ± 66 nM | IC50 [2]: 2100 ± 132 nM | IC50 (HDAC6): 25 ± 1 nM

O=C(/C=C/c1ccc2c(=O)n(Cc3cccc(F)c3)cnc2c1)NO [Compound 10j, (E)-3-(3-(3-Fluorobenzyl)-4-oxo-3,4-dihydroquinazolin-7-yl)-N-hydroxyacrylamide]
IC50 [1]: 1396 ± 9 nM | IC50 [2]: 1914 ± 6 nM | IC50 (HDAC6): 23 nM

O=C(/C=C/c1ccc2c(=O)n(Cc3ccc(F)cc3)cnc2c1)NO [Compound 10k, (E)-3-(3-(4-Fluorobenzyl)-4-oxo-3,4-dihydroquinazolin-7-yl)-N-hydroxyacrylamide]
IC50 [1]: 1490 ± 23 nM | IC50 [2]: 1490 ± 18 nM | IC50 (HDAC6): 42 ± 1 nM

O=C(/C=C/c1ccc2c(=O)n(Cc3ccc(Cl)cc3)cnc2c1)NO [Compound 10l, (E)-3-(3-(4-Chlorobenzyl)-4-oxo-3,4-dihydroquinazolin-7-yl)-N-hydroxyacrylamide]
induction of apoptosis (in words) [6]: substantially induced both early and late apoptosis | IC50 [1]: 767 ± 25 nM | IC50 [2]: 899 ± 45 nM | IC50 (HDAC6): 33 nM | fold more potent than SAHA [3]: 2- to 3 fold | IC50 [4]: 671 to 1210 nM | cells in G2/M phase [7]: 26.70%

Cc1ccc(Cn2cnc3cc(/C=C/C(=O)NO)ccc3c2=O)cc1 [Compound 10m, (E)-N-Hydroxy-3-(3-(4-methylbenzyl)-4-oxo-3,4-dihydroquinazolin-7-yl)acrylamide]
induction of apoptosis (in words) [6]: substantially induced both early and late apoptosis | IC50 [1]: 1210 ± 50 nM | IC50 [2]: 769 ± 9 nM | IC50 (HDAC6): 47 ± 1 nM | IC50 [5]: 898 ± 47 nM | fold more potent than SAHA [3]: 2- to 3 fold | IC50 [4]: 671 to 1210 nM | cells in G2/M phase [7]: 30.11%
